Test results reported in US9216999B2, “Substituted pyrrolo[2,3-h][1,6]naphthyridines and compositions thereof as JAK inhibitors” (priority 2011, dated 2015).
Structures can show the parent of a compound that is named as a salt. Where two headings read alike, the source gives them in different places.

Assays:
Type in all cases: biochemical
JAK1 = JAK1 (Homo sapiens (Human), UniProt P23458); assay: Enzyme assay (Assay Example^a 1), JAK1; conditions: ATP 100 μM
JAK2 = JAK2 (Homo sapiens (Human), UniProt O60674); assay: Enzyme assay (Assay Example^a 1), JAK2
JAK3 = JAK3 (Homo sapiens (Human), UniProt P52333); assay: Enzyme assay (Assay Example^a 1), JAK3
Tyk2 = Tyk2 (Homo sapiens (Human), UniProt P29597); assay: Enzyme assay (Assay Example^a 1), Tyk2; conditions: ATP 100 μM
Tyk2, sequence (P29597 whole entry): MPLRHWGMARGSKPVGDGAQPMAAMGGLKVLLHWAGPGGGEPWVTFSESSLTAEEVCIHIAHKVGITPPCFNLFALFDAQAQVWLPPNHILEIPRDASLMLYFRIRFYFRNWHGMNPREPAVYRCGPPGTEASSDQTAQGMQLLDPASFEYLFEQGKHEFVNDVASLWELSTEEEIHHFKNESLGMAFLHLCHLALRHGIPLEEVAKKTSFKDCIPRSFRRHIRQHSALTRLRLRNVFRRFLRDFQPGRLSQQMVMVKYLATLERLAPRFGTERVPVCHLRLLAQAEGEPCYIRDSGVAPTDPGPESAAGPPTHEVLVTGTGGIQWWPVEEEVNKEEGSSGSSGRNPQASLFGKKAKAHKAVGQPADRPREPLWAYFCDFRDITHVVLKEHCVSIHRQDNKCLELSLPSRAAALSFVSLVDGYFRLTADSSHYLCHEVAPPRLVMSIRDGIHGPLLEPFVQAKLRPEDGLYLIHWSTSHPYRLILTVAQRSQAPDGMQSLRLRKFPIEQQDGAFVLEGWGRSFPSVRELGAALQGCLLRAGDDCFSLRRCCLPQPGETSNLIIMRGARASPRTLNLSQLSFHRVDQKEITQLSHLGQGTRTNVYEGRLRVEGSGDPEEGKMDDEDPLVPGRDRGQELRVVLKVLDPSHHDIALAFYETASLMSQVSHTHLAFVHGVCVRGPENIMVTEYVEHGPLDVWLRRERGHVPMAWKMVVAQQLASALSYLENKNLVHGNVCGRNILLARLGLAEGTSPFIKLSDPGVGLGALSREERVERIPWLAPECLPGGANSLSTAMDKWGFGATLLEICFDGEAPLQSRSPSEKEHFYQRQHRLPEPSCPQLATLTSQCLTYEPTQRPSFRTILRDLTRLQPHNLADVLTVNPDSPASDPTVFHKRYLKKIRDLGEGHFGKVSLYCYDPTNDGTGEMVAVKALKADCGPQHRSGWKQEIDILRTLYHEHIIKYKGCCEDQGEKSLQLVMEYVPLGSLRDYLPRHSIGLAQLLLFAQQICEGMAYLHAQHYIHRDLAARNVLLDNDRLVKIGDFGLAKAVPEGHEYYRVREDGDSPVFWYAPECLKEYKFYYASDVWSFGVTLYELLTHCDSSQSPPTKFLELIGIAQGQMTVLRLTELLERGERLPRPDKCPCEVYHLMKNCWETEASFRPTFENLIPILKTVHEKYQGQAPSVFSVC

JAK3, sequence (P52333 whole entry): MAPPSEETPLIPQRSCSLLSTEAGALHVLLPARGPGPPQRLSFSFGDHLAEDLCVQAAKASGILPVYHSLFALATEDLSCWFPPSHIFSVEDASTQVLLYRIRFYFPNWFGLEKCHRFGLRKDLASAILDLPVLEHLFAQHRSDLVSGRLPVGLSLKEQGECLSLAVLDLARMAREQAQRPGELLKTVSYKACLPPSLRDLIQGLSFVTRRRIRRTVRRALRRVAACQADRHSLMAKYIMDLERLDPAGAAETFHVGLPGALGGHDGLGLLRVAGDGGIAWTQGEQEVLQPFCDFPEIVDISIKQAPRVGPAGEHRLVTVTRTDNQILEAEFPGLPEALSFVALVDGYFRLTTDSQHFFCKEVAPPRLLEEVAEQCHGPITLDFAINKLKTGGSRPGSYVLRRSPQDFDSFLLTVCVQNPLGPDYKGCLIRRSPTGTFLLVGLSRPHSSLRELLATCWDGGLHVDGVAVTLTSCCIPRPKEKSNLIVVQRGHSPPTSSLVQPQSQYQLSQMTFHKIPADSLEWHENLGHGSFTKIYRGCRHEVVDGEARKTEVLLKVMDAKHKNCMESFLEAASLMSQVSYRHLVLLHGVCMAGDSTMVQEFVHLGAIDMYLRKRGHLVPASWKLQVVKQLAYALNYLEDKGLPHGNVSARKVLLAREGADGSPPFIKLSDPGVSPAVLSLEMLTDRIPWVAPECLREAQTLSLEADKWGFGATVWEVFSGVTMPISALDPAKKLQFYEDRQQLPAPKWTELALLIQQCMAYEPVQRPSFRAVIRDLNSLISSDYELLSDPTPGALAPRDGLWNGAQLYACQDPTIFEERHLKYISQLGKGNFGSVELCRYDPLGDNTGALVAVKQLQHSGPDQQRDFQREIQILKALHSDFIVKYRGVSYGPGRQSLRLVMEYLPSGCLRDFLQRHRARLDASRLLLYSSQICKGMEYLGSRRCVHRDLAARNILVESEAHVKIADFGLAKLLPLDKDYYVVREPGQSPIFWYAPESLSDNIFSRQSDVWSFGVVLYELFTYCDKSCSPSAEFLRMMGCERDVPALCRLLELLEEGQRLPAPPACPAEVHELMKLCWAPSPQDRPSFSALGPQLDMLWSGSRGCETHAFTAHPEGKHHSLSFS

Compound	IC50 (JAK1) [µM]	IC50 (JAK2; ATP 100 μM) [µM]	IC50 (JAK3; ATP 100 μM) [µM]	IC50 (Tyk2) [µM]	IC50 (JAK2) [µM]	IC50 (JAK3) [µM]	IC50 (JAK1; Table^a 154) [µM]	IC50 (JAK2; ATP 100 μM, Table^a 154) [µM]	IC50 (JAK3; ATP 100 μM, Table^a 154) [µM]	IC50 (Tyk2; Table^a 154) [µM]
O=C([C@H]1CC[C@H](c2nnn3cnc4[nH]ccc4c23)CC1)N1CC(O)C1 [compound 361, [trans-4-(7H-pyrrolo[3,2-e][1,2,3]triazolo[1,5-c]pyrimidin-1-yl)cyclohexyl](3-hydroxyazetidin-1-yl)methanone]	0.089	0.25	> 1	> 1	–	–	–	–	–	–
N#Cc1ccc(NC[C@H]2CC[C@H](c3nnn4cnc5[nH]ccc5c34)CC2)c2ccccc12 [compound 248, 4-({[trans-4-(7H-pyrrolo[3,2-e][1,2,3]triazolo[1,5-c]pyrimidin-1-yl)cyclohexyl]methyl}amino)-1-naphthonitrile]	0.041	0.14	> 1	> 1	–	–	–	–	–	–
FC(F)(Br)CN[C@H]1CC[C@H](c2nnn3cnc4[nH]ccc4c23)CC1 [382b, trans-N-(2-bromo-2,2-difluoroethyl)-4-(7H-pyrrolo[3,2-e][1,2,3]triazolo[1,5-c]pyrimidin-1-yl)cyclohexanamine]	0.00031	–	–	0.013	0.0028	0.07	–	–	–	–
Fc1cc(CN2CCC(c3nnn4cnc5[nH]ccc5c34)CC2)ccc1C(F)(F)F [compound 167, 1-{1-[3-fluoro-4-(trifluoromethyl)benzyl]piperidin-4-yl}-7H-pyrrolo[3,2-e][1,2,3]triazolo[1,5-c]pyrimidine]	–	–	–	–	–	–	0.0031	0.03	0.17	0.98
Fc1ccc(NC[C@H]2CC[C@H](c3nnn4cnc5[nH]ccc5c34)CC2)cc1F [compound 249, N-{[trans-4-(7H-pyrrolo[3,2-e][1,2,3]triazolo[1,5-c]pyrimidin-1-yl)cyclohexyl]methyl}-3,4-difluoroaniline]	0.017	0.056	0.49	0.86	–	–	–	–	–	–
FC1(F)Oc2ccc(NC[C@H]3CC[C@H](c4nnn5cnc6[nH]ccc6c45)CC3)cc2O1 [compound 275, N-{[trans-4-(7H-pyrrolo[3,2-e][1,2,3]triazolo[1,5-c]pyrimidin-1-yl)cyclohexyl]methyl}-2,2-difluorobenzo[d][1,3]dioxol-5-amine]	0.0067	0.065	0.85	0.52	–	–	–	–	–	–
c1cc2c(ncn3nnc([C@H]4CC[C@@H](CNC5CC5)CC4)c23)[nH]1 [compound 406, N-{[cis-4-(7H-pyrrolo[3,2-e][1,2,3]triazolo[1,5-c]pyrimidin-1-yl)cyclohexyl]methyl}cyclopropanamine]	0.083	0.56	> 1	0.94	–	–	–	–	–	–
C#CCNC[C@H]1CC[C@H](c2nnn3cnc4[nH]ccc4c23)CC1 [compound 333, N-{[trans-4-(7H-pyrrolo[3,2-e][1,2,3]triazolo[1,5-c]pyrimidin-1-yl)cyclohexyl]methyl}prop-2-yn-1-amine]	0.0085	0.044	> 1	0.27	–	–	–	–	–	–
c1nc(CCNC[C@H]2CC[C@H](c3nnn4cnc5[nH]ccc5c34)CC2)c[nH]1 [compound 192, N-{[trans-4-(7H-pyrrolo[3,2-e][1,2,3]triazolo[1,5-c]pyrimidin-1-yl)cyclohexyl]methyl}-2-(1H-imidazol-4-yl)ethanamine hydrochloride]	–	–	–	–	–	–	0.0039	0.038	0.32	0.1
Clc1ccc(CN2CCC(c3nnn4cnc5[nH]ccc5c34)CC2)o1 [compound 228, 1-{1-[(5-chlorofuran-2-yl)methyl]piperidin-4-yl}-7H-pyrrolo[3,2-e][1,2,3]triazolo[1,5-c]pyrimidine]	0.0016	0.0044	0.17	0.1	–	–	–	–	–	–
c1cc2c(ncn3nnc(C4CCC4)c23)[nH]1 [compound 67]	–	–	–	–	–	–	0.052	0.2	0.65	0.41
O=C1NCCN1CCNC[C@H]1CC[C@H](c2nnn3cnc4[nH]ccc4c23)CC1 [compound 191, 1-[2-({[trans-4-(7H-pyrrolo[3,2-e][1,2,3]triazolo[1,5-c]pyrimidin-1-yl)cyclohexyl]methyl}amino)ethyl]imidazolidin-2-one]	–	–	–	–	–	–	0.01	0.084	0.92	0.18
Clc1ccc(CCN[C@H]2CC[C@H](c3nnn4cnc5[nH]ccc5c34)CC2)cc1 [198b, trans-N-(4-chlorophenethyl)-4-(7H-pyrrolo[3,2-e][1,2,3]triazolo[1,5-c]pyrimidin-1-yl)cyclohexanamine]	–	–	–	–	–	–	0.0025	0.037	0.4	0.065
Clc1n[nH]c2ccc(CN3CCC(c4nnn5cnc6[nH]ccc6c45)CC3)cc12 [compound 217, 1-{1-[(3-chloro-1H-indazol-5-yl)methyl]piperidin-4-yl}-7H-pyrrolo[3,2-e][1,2,3]triazolo[1,5-c]pyrimidine]	0.08	0.18	0.38	> 1	–	–	–	–	–	–
OC12CC3CC(C1)C(NC[C@H]1CC[C@H](c4nnn5cnc6[nH]ccc6c45)CC1)C(C3)C2 (stereo partly drawn) [compound 303, (1S,3R,4r,5S,7S)-4-({[trans-4-(7H-pyrrolo[3,2-e][1,2,3]triazolo[1,5-c]pyrimidin-1-yl)cyclohexyl]methyl}amino)adamantan-1-ol]	0.057	0.35	> 1	> 1	–	–	–	–	–	–
FC1(F)CN(C[C@H]2CC[C@H](c3nnn4cnc5[nH]ccc5c34)CC2)C1 [compound 339, 1-{trans-4-[(3,3-difluoroazetidin-1-yl)methyl]cyclohexyl}-7H-pyrrolo[3,2-e][1,2,3]triazolo[1,5-c]pyrimidine]	0.018	0.052	0.26	0.86	–	–	–	–	–	–
CN(CCO)C[C@H]1CC[C@H](c2nnn3cnc4[nH]ccc4c23)CC1 [compound 297, 2-({[trans-4-(7H-pyrrolo[3,2-e][1,2,3]triazolo[1,5-c]pyrimidin-1-yl)cyclohexyl]methyl}(methyl)amino)ethanol]	0.0095	0.1	> 1	0.32	–	–	–	–	–	–
N#CCN[C@H]1CC[C@H](c2nnn3cnc4[nH]ccc4c23)CC1 [393b, 2-{[trans-4-(7H-pyrrolo[3,2-e][1,2,3]triazolo[1,5-c]pyrimidin-1-yl)cyclohexyl]amino}acetonitrile]	0.0062	0.03	0.79	0.38	–	–	–	–	–	–
N#Cc1ccc(CN2CCC(c3nnn4cnc5[nH]ccc5c34)CC2)cc1C(F)(F)F [compound 244, 4-{[4-(7H-pyrrolo[3,2-e][1,2,3]triazolo[1,5-c]pyrimidin-1-yl)piperidin-1-yl]methyl}-2-(trifluoromethyl)benzonitrile]	0.0054	0.038	0.44	0.79	–	–	–	–	–	–
N#CCNS(=O)(=O)C[C@H]1CC[C@H](c2nnn3cnc4[nH]ccc4c23)CC1 [compound 419, 1-[trans-4-(7H-pyrrolo[3,2-e][1,2,3]triazolo[1,5-c]pyrimidin-1-yl)cyclohexyl]-N-(cyanomethyl)methanesulfonamide]	0.0035	0.0061	0.069	0.27	–	–	–	–	–	–
CC(C#N)[C@H]1CC[C@H](c2nnn3cnc4[nH]ccc4c23)CC1 (stereo partly drawn) [439b, 2-[trans-4-(7H-Pyrrolo[3,2-e][1,2,3]triazolo[1,5-c]pyrimidin-1-yl)cyclohexyl]propanenitrile]	0.0031	0.0067	0.33	0.025	–	–	–	–	–	–
N#CC1CC12CCC(c1nnn3cnc4[nH]ccc4c13)CC2 (stereo not shown) [compound 444, 6-(7H-Pyrrolo[3,2-e][1,2,3]triazolo[1,5-c]pyrimidin-1-yl)spiro[2.5]octane-1-carbonitrile]	0.0034	0.009	0.25	0.045	–	–	–	–	–	–
c1csc(CN2CCC(c3nnn4cnc5[nH]ccc5c34)CC2)n1 [compound 48]	–	–	–	–	–	–	0.022	0.054	0.44	0.46
CC(C)(C)OC(=O)N[C@@H]1CCN(C[C@H]2CC[C@H](c3nnn4cnc5[nH]ccc5c34)CC2)C1 [compound 299, tert-butyl ((R)-1-{[trans-4-(7H-pyrrolo[3,2-e][1,2,3]triazolo[1,5-c]pyrimidin-1-yl)cyclohexyl]methyl}pyrrolidin-3-yl)carbamate]	0.016	0.17	> 1	> 1	–	–	–	–	–	–
Brc1csc(CN2CCC(c3nnn4cnc5[nH]ccc5c34)CC2)c1 [compound 237, 1-{1-[(4-bromothiophen-2-yl)methyl]piperidin-4-yl}-7H-pyrrolo[3,2-e][1,2,3]triazolo[1,5-c]pyrimidine]	0.0015	0.01	0.41	> 1	–	–	–	–	–	–
N#CCNC(=O)C[C@H]1CC[C@H](c2nnn3cnc4[nH]ccc4c23)CC1 [443b, 2-[trans-4-(7H-Pyrrolo[3,2-e][1,2,3]triazolo[1,5-c]pyrimidin-1-yl)cyclohexyl]-N-(cyanomethyl)acetamide]	0.01	0.03	0.34	> 1	–	–	–	–	–	–
O[C@H]1Cc2ccccc2[C@H]1NC1CCC(c2nnn3cnc4[nH]ccc4c23)CC1 (mixture of isomers) [compound 378, (1R,2S)-1-{[4-(7H-pyrrolo[3,2-e][1,2,3]triazolo[1,5-c]pyrimidin-1-yl)cyclohexyl]amino}-2,3-dihydro-1H-inden-2-ol]	0.004	0.071	0.41	0.2	–	–	–	–	–	–
O=C1COc2ccc(CN3CCC(c4nnn5cnc6[nH]ccc6c45)CC3)cc2N1 [compound 225, 6-{[4-(7H-pyrrolo[3,2-e][1,2,3]triazolo[1,5-c]pyrimidin-1-yl)piperidin-1-yl]methyl}-2H-benzo[b][1,4]oxazin-3(4H)-one]	0.021	0.2	> 1	> 1	–	–	–	–	–	–
